# Source: ChEMBL document CHEMBL3885881, “DrugMatrix”
# Organism: Rattus norvegicus
# Assay: DrugMatrix - Regimen: Daily Repeat
# Type: toxicity, organism-based, Sprague-Dawley
# Design: regimen Daily Repeat, gender Male, age 6-8 weeks
# Conditions: in vivo, po, route oral GAVAGE, vehicle .5 % CMC; for ABSOLUTE BASOPHIL / ABSOLUTE EOSINOPHIL / ABSOLUTE LYMPHOCYTE / ABSOLUTE MONOCYTE / ABSOLUTE SEGMENTED NEUTROPHIL / BASOPHIL / EOSINOPHIL / ERYTHROCYTE COUNT / HEMATOCRIT / HEMOGLOBIN / LEUKOCYTE COUNT / LYMPHOCYTE / MEAN CORPUSCULAR HEMOGLOBIN / MEAN CORPUSCULAR HEMOGLOBIN CONCENTRATION / MEAN CORPUSCULAR VOLUME / MONOCYTE / NEUTROPHIL / NUCLEATED RED BLOOD CELLS / PLATELET COUNT: tissue Blood; for ALANINE AMINOTRANSFERASE / ALBUMIN / ALKALINE PHOSPHATASE / ASPARTATE AMINOTRANSFERASE / BLOOD UREA NITROGEN / CARBON DIOXIDE / CHLORIDE / CHOLESTEROL / CREATINE PHOSPHOKINASE / CREATININE / GLUCOSE / LACTATE DEHYDROGENASE / LIPASE / PHOSPHORUS / POTASSIUM / SODIUM / TOTAL BILIRUBIN / TOTAL PROTEIN / URIC ACID: tissue Plasma
# [1] = 17 mg/kg, 120 h, dose level Low, time 5 day
# [2] = 85 mg/kg, 72 h, dose level High, time 3 day
# [3] = 85 mg/kg, 120 h, dose level High, time 5 day
smiles,measurement,setting,value
CN1CCN(CCCN2c3ccccc3Sc3ccc(Cl)cc32)CC1 [PROCHLORPERAZINE],ABSOLUTE BASOPHIL,[1],0 CELLS/uL
same,ABSOLUTE EOSINOPHIL,[1],40 CELLS/uL
same,ABSOLUTE LYMPHOCYTE,[1],12867.33 CELLS/uL
same,ABSOLUTE MONOCYTE,[1],40 CELLS/uL
same,ABSOLUTE SEGMENTED NEUTROPHIL,[1],986 CELLS/uL
same,BASOPHIL,[1],0%
same,EOSINOPHIL,[1],0.33%
same,ERYTHROCYTE COUNT,[1],5.56 x10E6/uL
same,HEMATOCRIT,[1],36.13%
same,HEMOGLOBIN,[1],14.37 G/DL
same,LEUKOCYTE COUNT,[1],13.93 x10E3/uL
same,LYMPHOCYTE,[1],92.33%
same,MEAN CORPUSCULAR HEMOGLOBIN,[1],25.87 pg
same,MEAN CORPUSCULAR HEMOGLOBIN CONCENTRATION,[1],39.77 G/DL
same,MEAN CORPUSCULAR VOLUME,[1],65.13 fL
same,MONOCYTE,[1],0.33%
same,NEUTROPHIL,[1],7%
same,NUCLEATED RED BLOOD CELLS,[1],0 /100WBC
same,PLATELET COUNT,[1],1289.67 x10E3/uL
same,ALANINE AMINOTRANSFERASE,[1],45.33 u/L
same,ALBUMIN,[1],4.27 G/DL
same,ALKALINE PHOSPHATASE,[1],464.33 u/L
same,ASPARTATE AMINOTRANSFERASE,[1],85 u/L
same,BLOOD UREA NITROGEN,[1],15.33 mg/dL
same,CARBON DIOXIDE,[1],27.33 mmol/L
same,CHLORIDE,[1],100.67 MEQ/L
same,CHOLESTEROL,[1],75.67 mg/dL
same,CREATINE PHOSPHOKINASE,[1],372 u/L
same,CREATININE,[1],0.12 mg/dL
same,GLUCOSE,[1],141.67 mg/dL
same,LACTATE DEHYDROGENASE,[1],401 u/L
same,LIPASE,[1],9 u/L
same,PHOSPHORUS,[1],12.43 mg/dL
same,POTASSIUM,[1],6.4 MEQ/L
same,SODIUM,[1],143.33 MEQ/L
same,TOTAL BILIRUBIN,[1],0.17 mg/dL
same,TOTAL PROTEIN,[1],6.1 G/DL
same,URIC ACID,[1],1.33 mg/dL
same,ABSOLUTE BASOPHIL,[2],0 CELLS/uL
same,ABSOLUTE EOSINOPHIL,[2],81.33 CELLS/uL
same,ABSOLUTE LYMPHOCYTE,[2],10099 CELLS/uL
same,ABSOLUTE MONOCYTE,[2],0 CELLS/uL
same,ABSOLUTE SEGMENTED NEUTROPHIL,[2],453 CELLS/uL
same,BASOPHIL,[2],0%
same,EOSINOPHIL,[2],0.67%
same,ERYTHROCYTE COUNT,[2],6.34 x10E6/uL
same,HEMATOCRIT,[2],40.77%
same,HEMOGLOBIN,[2],16.03 G/DL
same,LEUKOCYTE COUNT,[2],10.63 x10E3/uL
same,LYMPHOCYTE,[2],95.33%
same,MEAN CORPUSCULAR HEMOGLOBIN,[2],25.3 pg
same,MEAN CORPUSCULAR HEMOGLOBIN CONCENTRATION,[2],39.37 G/DL
same,MEAN CORPUSCULAR VOLUME,[2],64.3 fL
same,MONOCYTE,[2],0%
same,NEUTROPHIL,[2],4%
same,NUCLEATED RED BLOOD CELLS,[2],1 /100WBC
same,PLATELET COUNT,[2],1132 x10E3/uL
same,ALANINE AMINOTRANSFERASE,[2],31.33 u/L
same,ALBUMIN,[2],4.87 G/DL
same,ALKALINE PHOSPHATASE,[2],290 u/L
same,ASPARTATE AMINOTRANSFERASE,[2],67.33 u/L
same,BLOOD UREA NITROGEN,[2],24 mg/dL
same,CARBON DIOXIDE,[2],22.67 mmol/L
same,CHLORIDE,[2],108 MEQ/L
same,CHOLESTEROL,[2],89 mg/dL
same,CREATINE PHOSPHOKINASE,[2],161.33 u/L
same,CREATININE,[2],0.2 mg/dL
same,GLUCOSE,[2],145.67 mg/dL
same,LACTATE DEHYDROGENASE,[2],143.33 u/L
same,LIPASE,[2],8 u/L
same,PHOSPHORUS,[2],11.93 mg/dL
same,POTASSIUM,[2],6.09 MEQ/L
same,SODIUM,[2],150.37 MEQ/L
same,TOTAL BILIRUBIN,[2],0.2 mg/dL
same,TOTAL PROTEIN,[2],7.03 G/DL
same,URIC ACID,[2],2.53 mg/dL
same,ABSOLUTE BASOPHIL,[3],0 CELLS/uL
same,ABSOLUTE EOSINOPHIL,[3],0 CELLS/uL
same,ABSOLUTE LYMPHOCYTE,[3],10951.33 CELLS/uL
same,ABSOLUTE MONOCYTE,[3],241 CELLS/uL
same,ABSOLUTE SEGMENTED NEUTROPHIL,[3],641 CELLS/uL
same,BASOPHIL,[3],0%
same,EOSINOPHIL,[3],0%
same,ERYTHROCYTE COUNT,[3],6.41 x10E6/uL
same,HEMATOCRIT,[3],38.7%
same,HEMOGLOBIN,[3],15.23 G/DL
same,LEUKOCYTE COUNT,[3],11.83 x10E3/uL
same,LYMPHOCYTE,[3],92.67%
same,MEAN CORPUSCULAR HEMOGLOBIN,[3],23.73 pg
same,MEAN CORPUSCULAR HEMOGLOBIN CONCENTRATION,[3],39.33 G/DL
same,MEAN CORPUSCULAR VOLUME,[3],60.37 fL
same,MONOCYTE,[3],2%
same,NEUTROPHIL,[3],5.33%
same,NUCLEATED RED BLOOD CELLS,[3],0 /100WBC
same,PLATELET COUNT,[3],1133 x10E3/uL
same,ALANINE AMINOTRANSFERASE,[3],46.33 u/L
same,ALBUMIN,[3],4.37 G/DL
same,ALKALINE PHOSPHATASE,[3],354.33 u/L
same,ASPARTATE AMINOTRANSFERASE,[3],99.67 u/L
same,BLOOD UREA NITROGEN,[3],21.33 mg/dL
same,CARBON DIOXIDE,[3],24.67 mmol/L
same,CHLORIDE,[3],105.67 MEQ/L
same,CHOLESTEROL,[3],84.67 mg/dL
same,CREATINE PHOSPHOKINASE,[3],760.33 u/L
same,CREATININE,[3],0.23 mg/dL
same,GLUCOSE,[3],146 mg/dL
same,LACTATE DEHYDROGENASE,[3],421 u/L
same,LIPASE,[3],9 u/L
same,PHOSPHORUS,[3],11.03 mg/dL
same,POTASSIUM,[3],6.4 MEQ/L
same,SODIUM,[3],147.97 MEQ/L
same,TOTAL BILIRUBIN,[3],0.27 mg/dL
same,TOTAL PROTEIN,[3],6.17 G/DL
same,URIC ACID,[3],1.8 mg/dL
